Target: T1, human FAAH (Homo sapiens, UniProt O00519)
T1 construct: host or cells: COS-7 cells, transient transfection; 13,000 g membrane fraction solubilised in 1% Triton X-100
T1 sequence (O00519 1-579): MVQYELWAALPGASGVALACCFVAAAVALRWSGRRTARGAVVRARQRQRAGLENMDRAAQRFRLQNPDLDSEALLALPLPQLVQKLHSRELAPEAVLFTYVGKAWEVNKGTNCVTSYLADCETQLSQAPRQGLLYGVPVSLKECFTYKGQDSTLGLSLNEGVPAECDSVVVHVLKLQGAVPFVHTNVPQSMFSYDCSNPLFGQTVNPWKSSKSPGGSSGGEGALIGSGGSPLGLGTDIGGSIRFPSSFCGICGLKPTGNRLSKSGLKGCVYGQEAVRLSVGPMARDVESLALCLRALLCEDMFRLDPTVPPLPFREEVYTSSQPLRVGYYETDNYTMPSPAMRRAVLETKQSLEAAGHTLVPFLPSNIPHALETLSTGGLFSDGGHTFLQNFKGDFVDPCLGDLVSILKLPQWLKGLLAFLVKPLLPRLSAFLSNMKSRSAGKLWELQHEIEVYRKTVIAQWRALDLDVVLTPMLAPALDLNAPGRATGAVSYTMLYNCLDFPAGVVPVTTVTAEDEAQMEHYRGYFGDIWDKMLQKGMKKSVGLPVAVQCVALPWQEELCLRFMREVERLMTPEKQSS
Assay: Inhibition of human FAAH (AMC arachidonoyl amide fluorescence assay)
Assay type: biochemical
Conditions: inhibitor preincubated 30 minutes at room temperature; 20 μM AMC arachidonoyl amide; 4 hours; read-out: Activity (Ki, inhibitors of human FAAH)
Procedure, shortened: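 Solubilized membrane fraction from COS-7 cells transiently expressing human FAAH (0.05 mg/mL final) preincubated 30 min at room temperature with 3-fold serially diluted inhibitor, then reacted 4 h at room temperature with 20 μM AMC arachidonoyl amide. Stopped with α-ketoheterocycle; fluorescence read. Ki from single-site competitive fit, Km fixed at 12 μM.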

Row | SMILES | Ki [nM]
1 | FC(F)(F)Oc1ccc(C2CC(Oc3cccc(-n4cnnc4)c3)=NO2)cc1 (racemic) [I-221] | ≥ 1000
2 | CC1(c2ccc(OC(F)(F)F)cc2)CC(Oc2ccc(-n3cccn3)nc2)=NO1 (racemic) [I-198] | ≤ 100
3 | CC(C)Oc1ccc([C@H]2CC(Br)=NO2)cc1 (racemic) [I-15] | ≤ 100
4 | Cc1nnc(-c2ccc(OC3=NOC(c4ccc(OC(F)(F)F)cc4)C3)cn2)o1 (racemic) [I-157] | ≤ 100
5 | Fc1cncc(OC2=NOC(c3ccc(Oc4ccccc4)cc3)C2)c1 (single isomer, unassigned) [I-43] | ≤ 100
6 | CC1(c2ccc(OC(F)(F)F)cc2)CC(Br)=NO1 (racemic) [I-75] | ≤ 100
7 | c1ccc(Oc2ccc(C3CC(Oc4cnc5ccccc5c4)=NO3)cc2)cc1 (single isomer, unassigned) [I-42] | ≤ 100
8 | Fc1cccc(OC2=NOC(c3ccc(Oc4ccccc4)cc3)C2)c1 (single isomer, unassigned) [I-25] | 100 to 1000
9 | Fc1cc([C@H]2CC(Br)=NO2)ccc1OC(F)(F)F (racemic) [I-120] | ≤ 100
10 | CCNC(=O)c1ccc(OC2=NOC(C)(c3ccc(OC(F)(F)F)cc3)C2)cn1 (racemic) [I-115] | ≤ 100
11 | CC1(c2ccc(OC(F)(F)F)cc2)CC(Oc2cncc(-c3n[nH]c(=O)o3)c2)=NO1 (racemic) [I-231] | 100 to 1000
12 | Cn1cc(-c2ccc(OC3=NOC(c4ccc(C(F)(F)F)cc4)C3)cn2)cn1 (racemic) [I-219] | ≤ 100
13 | BrC1=NOC(c2ccc(Oc3ccccc3)cc2)C1 (single isomer, unassigned) [I-10] | ≤ 100
14 | COc1cccc(C2CC(Br)=NO2)c1 (single isomer, unassigned) [I-7] | 100 to 1000

Continued, values first:

Row | Ki [nM] | SMILES
15 | ≤ 100 | O=S(=O)(c1ccc([C@H]2CC(Br)=NO2)cc1)N1CCOCC1 (racemic) [I-205]
16 | 100 to 1000 | Fc1ccccc1OC1=NOC(c2ccc(Oc3ccccc3)cc2)C1 (racemic) [I-59]
17 | ≤ 100 | COC(=O)c1ccc(OC2=NO[C@@H](c3ccc(OC(F)(F)F)c(F)c3)C2)cn1 (racemic) [I-122]
18 | 100 to 1000 | CC1C(Br)=NOC1c1ccc(Oc2ccccc2)cc1 (stereo not shown) [I-82]
19 | 100 to 1000 | FC(F)(F)C1(c2ccc(Oc3ccccc3)cc2)CC(Br)=NO1 (racemic) [I-130]
20 | ≥ 1000 | O=C(O)c1ccc(-c2ccc(OC3=NOC(c4ccc(OC(F)(F)F)cc4)C3)cn2)o1 (racemic) [I-188]
21 | ≤ 100 | C#CCOc1ccc([C@H]2CC(Oc3ccc(C(=O)O)nc3)=NO2)cc1 (racemic) [I-145]
22 | 100 to 1000 | FC(F)(F)c1ccc(C2CC(Oc3ccc(Br)nc3)=NO2)cc1 (racemic) [I-216]
23 | ≤ 100 | Fc1cc([C@H]2CC(Oc3cncnc3)=NO2)ccc1OC(F)(F)F (racemic) [I-121]
24 | ≤ 100 | FC(F)(F)Oc1ccc(C2CC(Oc3cncc(-c4nnco4)c3)=NO2)cc1 (racemic) [I-230]
25 | ≤ 100 | O=C(c1ccc([C@H]2CC(Br)=NO2)cc1)N1CCCC1 (racemic) [I-209]
26 | ≤ 100 | CC1C(Br)=NOC1c1ccc(Oc2ccccc2)cc1 (stereo not shown) [I-78]
27 | ≤ 100 | CC(C)Oc1ccc([C@H]2CC(Oc3cncnc3)=NO2)cc1 (racemic) [I-141]
28 | ≥ 1000 | c1ccc(OC2=NOC(c3ccc(Oc4ccccc4)cc3)C2)cc1 (single isomer, unassigned) [I-23]
29 | ≥ 1000 | Fc1ccc(OC2=NOC(c3ccc(Oc4ccccc4)cc3)C2)cc1 (single isomer, unassigned) [I-24]
30 | ≤ 100 | c1ccc(Oc2ccc(C3CC(Oc4cnc5cc[nH]c5c4)=NO3)cc2)cc1 (racemic) [I-57]
31 | ≤ 100 | NC(=O)CCc1ccc(OC2=NOC(c3ccc(Oc4ccccc4)cc3)C2)cn1 (racemic) [I-100]
32 | 100 to 1000 | Cn1ccc2cc(OC3=NOC(c4ccc(Oc5ccccc5)cc4)C3)cnc21 (single isomer, unassigned) [I-44]
33 | ≥ 1000 | FC(F)(F)Oc1ccc(C2CC(Oc3ccc(-c4cn[nH]c4)nc3)=NO2)cc1 (racemic) [I-165]
34 | ≤ 100 | Cc1nnc(-c2ccc(OC3=NOC(c4ccc(C(F)(F)F)cc4)C3)cn2)o1 (racemic) [I-259]

From US9149465B2, “Isoxazolines as inhibitors of fatty acid amide hydrolase” (Infinity Pharmaceuticals, Inc., priority 2009, dated 2015)
